Patent US20250228838A1, “METHODS OF USE OF CYCLIC AMIDE DERIVATIVES TO TREAT SIGMA RECEPTOR MEDIATED DISORDERS” (Minerva Neurosciences, Inc., priority 2010, published 2025)
pKi: −log10 of the molar value.

Tests used:
[1] = test system: patients with DSM-IV schizophrenia; assay: Phase 2 double-blind, randomized, placebo-controlled clinical study of CYR-101; type: in vivo, human
Experimental: A study was conducted using the compound of formula II, to examine the efficacy on schizophrenia and treatment of symptoms of schizophrenia. The study was a multi-center, inpatient and ambulatory, phase 2, double-blind, randomized, placebo-controlled proof of concept study of the compound of formula II in patients with DSM-IV schizophrenia. The study used 21 centers across three different countries. The study was designed to test the therapeutic efficacy of the compound of formula II on all dimensions of schizophrenic disease (E.g., positive, negative, and general symptoms, cognition, sleep, mood and anxiety). The study also examined the safety of the administered doses of the compound of formula II (also referred to herein as CYR-101), including heart repolarization (i.e., QT interval), weight change, adverse events, prolactin, and extrapyramidal symptoms). The study was conducted for a time period of three months. […] In one aspect of the study, the dosage of compound was titrated up to 32 mg b.i.d. The resulting data was analyzed one of three ways: 1.) Safety set; 2.) Full analysis set, with each patient having at least one PANSS evaluation after treatment initiation included in the efficacy analysis. The LOCF method is used; and 3.) Per protocol set, where for certain analyses, all patients having completed three months of treatment are included. ANCOVA followed by a contrast analysis at each time point were applied and in some cases, a non-parametric Wilcoxon test was used.

sigma 2 receptor = sigma 2 receptor (Homo sapiens, UniProt Q5BJF2); conditions: cited from earlier work
dopamine = conditions: cited from earlier work
5-HT2A = 5-HT2A (Homo sapiens, UniProt P28223); conditions: cited from earlier work
5-HT2A, sequence (P28223 whole entry, species assumed): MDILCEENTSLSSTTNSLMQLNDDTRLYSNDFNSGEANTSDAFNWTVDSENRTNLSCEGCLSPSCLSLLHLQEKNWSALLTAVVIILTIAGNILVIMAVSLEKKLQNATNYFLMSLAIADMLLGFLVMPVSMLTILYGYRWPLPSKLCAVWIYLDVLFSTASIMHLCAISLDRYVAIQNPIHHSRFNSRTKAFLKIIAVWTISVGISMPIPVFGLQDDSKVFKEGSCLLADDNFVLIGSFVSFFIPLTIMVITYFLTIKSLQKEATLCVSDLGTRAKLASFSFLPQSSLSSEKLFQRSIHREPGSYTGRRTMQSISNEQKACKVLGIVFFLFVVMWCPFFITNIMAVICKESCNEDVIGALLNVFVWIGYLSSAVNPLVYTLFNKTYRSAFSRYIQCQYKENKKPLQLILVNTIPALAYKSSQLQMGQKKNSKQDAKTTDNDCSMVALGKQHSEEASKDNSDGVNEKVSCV

sigma 2 receptor, sequence (Q5BJF2 whole entry, species assumed): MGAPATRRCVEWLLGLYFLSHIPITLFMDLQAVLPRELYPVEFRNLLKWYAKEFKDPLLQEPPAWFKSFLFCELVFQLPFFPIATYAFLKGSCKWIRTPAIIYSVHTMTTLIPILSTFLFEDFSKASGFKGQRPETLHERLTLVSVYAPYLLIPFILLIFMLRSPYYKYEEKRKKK

SMILES: O=C(CN1CCC(CN2Cc3ccccc3C2=O)CC1)c1ccc(F)cc1 [CYR-101, 2-[[1-[2-(4-Fluorophenyl)-2-oxoethyl]piperidin-4-yl]methyl]isoindolin-1-one]
- QT interval ([1]; doses up to 32 mg b.i.d., clinically acceptable limits E.g. 10-15 milliseconds or less): did not cross clinically acceptable limits
- cognitive performances assessed by BACS, versus placebo ([1]; full analysis set (FAS)): no differences between the placebo group and the CYR-101 group, except for the Token motor task
- cognitive performances assessed by BACS, versus placebo ([1]; per protocol set (PPC) at D84, Token motor task, list learning task, verbal fluency, processing speed, not statistically significant): slight difference in favour of CYR-101 group
- duration of continued improvement in both positive and negative symptoms ([1]; schizophrenic patients): continued for more than twelve weeks
- effect on cognition ([1]; schizophrenic patients): positive effect on cognition
- mood, anxiety and sleep ([1]; schizophrenic patients): some improvements of mood, anxiety and sleep
- improvement in positive symptoms ([1]; schizophrenic patients, PANSS): did not improve until after the first four weeks of treatment
- improvement in negative symptoms ([1]; schizophrenic patients, PANSS, course of treatment): observed immediately, and continued through the course of treatment
- emergence or worsening of extrapyramidal symptoms, CYR-101 versus placebo ([1]; schizophrenic patients, three months, titrated up to 32 mg b.i.d.): no significant difference
- number of SAE in the active treatment group ([1]; three SAE in total, two in placebo group, unlikely related to CYR-101): one
- pKi (sigma 2 receptor; Table 3 of U.S. Pat. No. 7,166,617, read-out: affinity for the sigma 2 receptor): 7.89
- mode of action at sigma 2 (sigma 2 receptor): antagonist
- sigma 2 selectivity of receptor binding (sigma 2 receptor): sigma 2-selective receptor binding
- dopamine binding (dopamine): devoid of dopamine binding properties
- mode of action at 5-HT2A (5-HT2A): antagonist
